We go through ten compounds from ChEMBL document CHEMBL1201862, “PubChem BioAssay data set” (2004).

Common to all, as to assay: DTP human tumour cell line panel, 48 h
For experiment [1], the system named is IGROV-1.
The test system of experiment [2] is NCI-H23.
For experiment [3], the system named is MDA-N.
In experiment [4] the test system is 786-0.
Experiment [5] has as its system MOLT-4.
For experiment [6], the system named is NCI-H460.
Experiment [7] concerns LOX IMVI.
Experiment [8] has as its system SNB-75.
Experiment [9] deals with OVCAR-5.
Experiment [10] concerns CCRF-CEM.
The subject of experiment [11] is KM12.
Experiment [12] concerns NCI-H226.
Experiment [13] concerns SF-539.
Experiment [14] deals with COLO 205.
Experiment [15] concerns M14.
The test system of experiment [16] is NCI/ADR-RES.
The test system of experiment [17] is CAKI-1.
The test system of experiment [18] is HCC 2998.
Experiment [19] relates to SK-OV-3.

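Compound exposure: 48 hours, 5 concentrations, 96-well plates. Here, GI50 denotes the concentration required for 50% inhibition of growth.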 The source made the active and inactive calls. Cut-off read from the data, not from the text of the source: active = GI50 up to about 1.1 µM and inactive = higher.

The GI50 is the concentration at which growth is held to half of that of the control. Turning to `CN1C(=O)c2c(c3c4ccccc4n(C)c3c3c2c2ccccc2n3C)C1=O`, the GI50 in experiment [1], in experiment [2], in [3], in experiment [4], in experiment [5] and in experiment [6] was > 100 µM (inactive) in each case. Besides, the GI50 in experiment [7], in experiment [8], in experiment [9], in [10], in experiment [11] and in experiment [12] was > 100 µM (inactive) each time. Also, the GI50 in experiment [13], in [14], in experiment [15], in experiment [16], in experiment [17] and in [18] was > 100 µM (inactive) each time. In addition, the GI50 in [19] is > 100 µM (inactive).
As to `CCOC(=O)/C(C(=O)Nc1ccc(F)cc1)=C(/N)N1CCCC1`, the GI50 in experiment [1] was > 100 µM (inactive); in experiment [2], < 0.01 µM (active); in [3] it was > 100 µM (inactive); in [4] it was > 100 µM (inactive); in [5], > 100 µM (inactive); in experiment [6], > 100 µM (inactive). Moreover, the GI50 in experiment [7], in experiment [8], in [9], in experiment [10], in [11] and in experiment [12] was > 100 µM (inactive) each time. For the same compound, the GI50 in [13], in [14], in [15], in [16], in experiment [17] and in experiment [18] was > 100 µM (inactive) in each case. Besides, in [19], the GI50 is > 100 µM (inactive).
Take `O=c1[nH]/c(=C/c2ccc(OCc3ccccc3)cn2)c(=O)[nH]/c1=C/c1ccc([N+](=O)[O-])cc1`: the GI50 was > 100 µM (inactive) in experiment [1]; > 100 µM (inactive) in experiment [2]; > 100 µM (inactive) in experiment [3]; > 100 µM (inactive) in [4]; > 63.1 µM (inactive) in experiment [5]; > 100 µM (inactive) in experiment [6]. Further, the GI50 in [7] was > 100 µM (inactive); in experiment [8], 27.1 µM (inactive); in experiment [9], > 100 µM (inactive); in [10], > 100 µM (inactive); in [11] it was > 100 µM (inactive); in experiment [12], > 100 µM (inactive). Besides, the GI50 is > 61.4 µM (inactive) in experiment [13]; > 100 µM (inactive) in experiment [14]; > 100 µM (inactive) in experiment [15]; > 100 µM (inactive) in experiment [16]; > 37.8 µM (inactive) in experiment [17]; > 100 µM (inactive) in experiment [18]. Moreover, in experiment [19], the GI50 was > 73.5 µM (inactive).
As for `CC1(C)OC(=O)C(Cc2ccccc2)(Cc2ccccc2)C(=O)O1`, the GI50 in experiment [1], in [2], in [3], in [4], in [5] and in experiment [6] was > 100 µM (inactive) each time. Further, the GI50 in experiment [7], in experiment [8], in experiment [9], in [10], in [11] and in experiment [12] was > 100 µM (inactive) throughout. Besides, the GI50 in experiment [13], in [14], in experiment [15], in experiment [16], in experiment [17] and in [18] was > 100 µM (inactive) throughout. Besides, the GI50 in [19] is > 100 µM (inactive).
On to `CN1C(=O)N(C)C(O)C(Cl)(Br)C1=O` (stereo not given), for which the GI50 in [1], in experiment [2], in experiment [3], in [4], in [5] and in [6] was > 100 µM (inactive) each time. Moreover, the GI50 was > 100 µM (inactive) in experiment [7]; > 100 µM (inactive) in [8]; 0.182 µM (active) in experiment [9]; > 100 µM (inactive) in experiment [10]; > 100 µM (inactive) in [11]; > 100 µM (inactive) in experiment [12]. Besides, the GI50 in experiment [13], in experiment [14], in experiment [15], in experiment [16], in [17] and in [18] was > 100 µM (inactive) in each case. The GI50 in [19] is > 100 µM (inactive).
On to `O=C1CCCC2=C1CC1=C(CCCC1=O)N2c1ccc(-c2ccccc2)cc1`, for which the GI50 is > 100 µM (inactive) in experiment [1]; > 100 µM (inactive) in [2]; > 100 µM (inactive) in experiment [3]; > 69.7 µM (inactive) in experiment [4]; > 100 µM (inactive) in experiment [5]; > 100 µM (inactive) in [6]. The GI50 in experiment [7] is > 100 µM (inactive); in [8], > 47.4 µM (inactive); in [9] it was > 100 µM (inactive); in experiment [10], > 100 µM (inactive); in experiment [11], > 100 µM (inactive); in experiment [12] it was > 100 µM (inactive). Also, the GI50 in experiment [13] is > 72.6 µM (inactive); in [14], > 100 µM (inactive); in [15], > 100 µM (inactive); in [16], > 100 µM (inactive); in experiment [17], > 100 µM (inactive); in [18], > 100 µM (inactive). For the same compound, the GI50 in experiment [19] was > 76.9 µM (inactive).
With `CN(C)CC1CCC/C(=C\c2ccc(N(C)C)cc2)C1=O` (stereo not given), the GI50 in experiment [1] is 3.73 µM (inactive); in [2], 15.1 µM (inactive); in experiment [3], 7.28 µM (inactive); in experiment [4] it was 3.34 µM (inactive); in experiment [5], 4.97 µM (inactive); in [6], 12 µM (inactive). The GI50 in [7] is 1.67 µM (inactive); in experiment [8], 17 µM (inactive); in [9] it was 13.9 µM (inactive); in experiment [10] it was > 100 µM (inactive); in experiment [11] it was 1.44 µM (inactive); in experiment [12], 18.2 µM (inactive). The GI50 is 15.3 µM (inactive) in experiment [13]; 2.58 µM (inactive) in experiment [14]; 3.55 µM (inactive) in experiment [15]; 25.9 µM (inactive) in [16]; 1.8 µM (inactive) in experiment [17]; 15.9 µM (inactive) in experiment [18]. Besides, in [19], the GI50 was 17.8 µM (inactive).
Consider `CC(Cl)CN1c2ccccc2Sc2ccc(Cl)cc21` (stereo not given), for which the GI50 in experiment [1], in experiment [2], in [3], in [4], in experiment [5] and in experiment [6] was > 10 µM (inactive) in each case. Moreover, the GI50 in experiment [7], in experiment [8], in experiment [9], in experiment [10], in experiment [11] and in experiment [12] was > 10 µM (inactive) in each case. The GI50 in experiment [13], in [14], in experiment [15], in experiment [16], in experiment [17] and in experiment [18] was > 10 µM (inactive) throughout. Besides, in experiment [19], the GI50 was > 10 µM (inactive).
With `CN(c1ccccc1Cl)S(=O)(=O)c1ccccc1[N+](=O)[O-]`, the GI50 in experiment [1] was 70.1 µM (inactive); in experiment [2] it was 35.2 µM (inactive); in [3], 33.9 µM (inactive); in [4], 58.9 µM (inactive); in experiment [5], 25.7 µM (inactive); in experiment [6] it was 33.9 µM (inactive). Besides, the GI50 in [7] was 42.6 µM (inactive); in experiment [8], 40.6 µM (inactive); in experiment [9] it was 30.6 µM (inactive); in experiment [10], 33.2 µM (inactive); in experiment [11], 38.9 µM (inactive); in experiment [12], 41.5 µM (inactive). For the same compound, the GI50 in [13] was 35.9 µM (inactive); in experiment [14], 34.2 µM (inactive); in experiment [15], 17.3 µM (inactive); in [16], 27.9 µM (inactive); in experiment [17], 48.8 µM (inactive); in experiment [18], 34.7 µM (inactive). Moreover, in experiment [19], the GI50 is 51.5 µM (inactive).
Consider `CCOC(=O)c1csc(-c2cn(C)c3c2C(=O)C(OC)=CC3=O)n1`, for which the GI50 in experiment [1] is > 46.1 µM (inactive); in [2] it was 11.3 µM (inactive); in experiment [3], 15.6 µM (inactive); in [4] it was > 100 µM (inactive); in experiment [5] it was > 100 µM (inactive); in experiment [6], 8.73 µM (inactive). The GI50 in experiment [7] is 2.6 µM (inactive); in experiment [8] it was 30.3 µM (inactive); in experiment [9], 31.1 µM (inactive); in [10], 72.8 µM (inactive); in experiment [11], 20 µM (inactive); in experiment [12], > 83 µM (inactive). For the same compound, the GI50 was 27.6 µM (inactive) in experiment [13]; 26.9 µM (inactive) in [14]; 14 µM (inactive) in experiment [15]; 22.5 µM (inactive) in experiment [16]; > 91.2 µM (inactive) in experiment [17]; 23.8 µM (inactive) in experiment [18]. Moreover, in [19], the GI50 was 69 µM (inactive).
